Consider 6 compounds from ChEMBL document CHEMBL4665902, “Novel Heteroaryl Compounds for Treating Huntington's Disease” (ACS Med Chem Lett, 2020).

In this assay the target is Huntingtin (Homo sapiens, UniProt P42858). Description: Inhibition of Huntingtin protein (unknown origin) incubated for overnight in presence of MW1/MAB2166 monoclonal antibody by MSD assay.
Huntingtin, sequence (P42858 whole entry): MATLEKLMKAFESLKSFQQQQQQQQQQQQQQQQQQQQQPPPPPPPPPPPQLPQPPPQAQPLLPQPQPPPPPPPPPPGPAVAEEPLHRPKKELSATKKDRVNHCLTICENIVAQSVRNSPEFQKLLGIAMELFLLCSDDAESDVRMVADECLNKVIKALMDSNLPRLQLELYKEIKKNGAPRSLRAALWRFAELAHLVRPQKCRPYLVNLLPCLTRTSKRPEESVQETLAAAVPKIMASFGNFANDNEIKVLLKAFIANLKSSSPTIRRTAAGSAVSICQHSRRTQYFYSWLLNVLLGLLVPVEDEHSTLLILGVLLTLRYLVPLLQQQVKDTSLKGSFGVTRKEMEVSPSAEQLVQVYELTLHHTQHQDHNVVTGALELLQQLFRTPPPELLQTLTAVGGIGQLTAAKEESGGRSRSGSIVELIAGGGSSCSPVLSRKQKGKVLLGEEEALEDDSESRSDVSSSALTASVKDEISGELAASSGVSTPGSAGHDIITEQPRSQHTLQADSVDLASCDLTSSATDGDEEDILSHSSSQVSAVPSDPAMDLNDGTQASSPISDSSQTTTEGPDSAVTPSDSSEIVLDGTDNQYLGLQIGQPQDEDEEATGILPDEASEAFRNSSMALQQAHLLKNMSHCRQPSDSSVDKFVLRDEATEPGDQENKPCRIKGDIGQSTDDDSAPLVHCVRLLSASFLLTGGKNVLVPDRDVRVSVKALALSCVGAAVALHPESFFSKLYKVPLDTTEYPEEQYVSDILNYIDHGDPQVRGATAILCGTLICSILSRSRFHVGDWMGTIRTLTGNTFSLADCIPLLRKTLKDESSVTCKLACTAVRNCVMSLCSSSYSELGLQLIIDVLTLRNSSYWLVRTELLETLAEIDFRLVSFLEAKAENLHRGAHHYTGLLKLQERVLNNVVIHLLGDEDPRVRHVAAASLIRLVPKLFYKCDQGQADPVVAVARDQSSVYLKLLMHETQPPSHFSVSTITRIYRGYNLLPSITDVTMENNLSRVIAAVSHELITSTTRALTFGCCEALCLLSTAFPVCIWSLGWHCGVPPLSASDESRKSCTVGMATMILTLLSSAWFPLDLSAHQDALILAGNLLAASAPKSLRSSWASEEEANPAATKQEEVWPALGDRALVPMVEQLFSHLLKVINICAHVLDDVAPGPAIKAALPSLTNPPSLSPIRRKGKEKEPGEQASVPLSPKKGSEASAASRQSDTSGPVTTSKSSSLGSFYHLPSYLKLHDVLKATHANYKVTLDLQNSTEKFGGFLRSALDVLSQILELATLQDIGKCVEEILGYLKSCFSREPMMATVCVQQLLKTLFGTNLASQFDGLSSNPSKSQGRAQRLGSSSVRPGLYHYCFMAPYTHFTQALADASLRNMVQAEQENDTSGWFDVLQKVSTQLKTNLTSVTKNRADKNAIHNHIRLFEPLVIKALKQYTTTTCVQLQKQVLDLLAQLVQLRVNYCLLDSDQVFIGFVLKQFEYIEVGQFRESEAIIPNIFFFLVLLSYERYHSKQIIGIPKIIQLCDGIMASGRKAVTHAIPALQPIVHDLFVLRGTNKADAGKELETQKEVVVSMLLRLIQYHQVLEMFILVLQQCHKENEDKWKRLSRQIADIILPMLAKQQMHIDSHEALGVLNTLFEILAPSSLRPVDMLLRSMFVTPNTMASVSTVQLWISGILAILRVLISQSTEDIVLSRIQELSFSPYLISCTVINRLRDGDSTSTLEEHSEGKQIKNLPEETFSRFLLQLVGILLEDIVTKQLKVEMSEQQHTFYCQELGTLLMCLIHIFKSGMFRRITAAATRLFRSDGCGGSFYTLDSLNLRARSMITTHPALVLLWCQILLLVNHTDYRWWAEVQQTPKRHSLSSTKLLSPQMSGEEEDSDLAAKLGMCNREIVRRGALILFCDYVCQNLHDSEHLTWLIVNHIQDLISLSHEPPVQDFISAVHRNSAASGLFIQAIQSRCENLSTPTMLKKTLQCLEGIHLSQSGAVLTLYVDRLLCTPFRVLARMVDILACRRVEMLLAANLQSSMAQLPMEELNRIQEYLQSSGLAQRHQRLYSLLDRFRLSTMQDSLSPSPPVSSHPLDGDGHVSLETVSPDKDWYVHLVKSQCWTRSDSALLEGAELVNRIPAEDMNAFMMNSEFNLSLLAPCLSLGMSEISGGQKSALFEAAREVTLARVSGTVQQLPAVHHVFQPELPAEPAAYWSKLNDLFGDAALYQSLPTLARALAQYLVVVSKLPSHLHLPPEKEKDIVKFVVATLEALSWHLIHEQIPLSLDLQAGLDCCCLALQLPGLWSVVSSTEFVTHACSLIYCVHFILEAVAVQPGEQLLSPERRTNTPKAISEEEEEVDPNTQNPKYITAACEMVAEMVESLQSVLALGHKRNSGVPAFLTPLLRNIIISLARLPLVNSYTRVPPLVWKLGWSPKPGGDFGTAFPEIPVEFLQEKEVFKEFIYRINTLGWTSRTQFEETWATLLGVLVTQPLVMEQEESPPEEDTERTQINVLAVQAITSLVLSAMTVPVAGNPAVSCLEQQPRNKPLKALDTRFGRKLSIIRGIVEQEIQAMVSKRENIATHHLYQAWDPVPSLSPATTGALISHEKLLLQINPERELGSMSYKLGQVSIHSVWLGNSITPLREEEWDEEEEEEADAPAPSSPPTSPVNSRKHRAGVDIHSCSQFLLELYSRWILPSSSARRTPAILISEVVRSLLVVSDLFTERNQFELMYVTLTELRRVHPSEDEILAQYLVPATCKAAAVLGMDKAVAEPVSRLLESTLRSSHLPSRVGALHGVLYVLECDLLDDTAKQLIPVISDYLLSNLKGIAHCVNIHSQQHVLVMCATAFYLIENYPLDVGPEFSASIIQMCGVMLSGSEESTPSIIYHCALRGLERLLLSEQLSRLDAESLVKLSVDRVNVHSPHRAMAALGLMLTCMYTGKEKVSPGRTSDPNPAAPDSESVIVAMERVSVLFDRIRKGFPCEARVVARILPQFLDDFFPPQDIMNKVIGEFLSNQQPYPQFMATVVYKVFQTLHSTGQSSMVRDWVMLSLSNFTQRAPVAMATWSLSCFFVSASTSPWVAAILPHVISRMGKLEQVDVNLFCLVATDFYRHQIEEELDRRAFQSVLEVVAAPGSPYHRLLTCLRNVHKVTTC
In the case of `CN(c1nc2sc(-c3cnc(-c4cn[nH]c4)c4[nH]ccc34)nc2s1)C1CCNCC1`, the IC50 was no more than 100 nM.

As to `CN(c1nc2sc(-c3ncc(-c4cn[nH]c4)cc3O)nc2s1)C1CC(C)(C)NC(C)(C)C1`, the IC50 was no more than 100 nM.

As to `C[C@H]1C[C@H](Oc2nc3sc(-c4ncc(-c5nnn(C)n5)c5cc[nH]c45)nc3s2)CCN1`, the concentration for half-maximal inhibition (IC50) is no more than 100 nM.

`CN(c1nc2sc(-c3ncc(-c4cn[nH]c4)nn3)nc2s1)C1CC(C)(C)NC(C)(C)C1`: the IC50 is no more than 100 nM.

For the compound `Cn1cc2cc(-c3nn4cc(C5CCNCC5)nc4s3)cc(C#N)c2n1`, the IC50 was no more than 100 nM.

Take `Cc1cn2nc(-c3cn4cc(C5CCNCC5)nc4s3)cc(C)c2n1`: the IC50 was no more than 100 nM.
